Source: patent US20240325330A1, “NEW METHOD TO TREAT ACIDOSIS RELATED DISEASES WITH ACETOACETATE” (INSTITUT NATIONAL DE LA SANTÉ ET DE LA RECHERCHE MÉDICALE, priority 2021, published 2024)

Key:
Format in all cases: cell-based
[1] = system: human monocytes differentiated into macrophages under lactic acidosis (LA-Mφ); experiment: Mitochondrial network architecture, morphology and size (confocal microscopy, TEM); details: 5 mM AcAc, 10 mM lactic acid; compared with Mφ; data not shown
Experimental: (§1) Peripheral blood mononuclear cells (PBMC) were obtained from healthy human volunteers (Blood collection center, Angers, France; agreement ANG-2017-01) by standard density-gradient centrifugation on lymphocyte separation medium (Eurobio, Courtaboeuf, France). CD14+ monocytes were then isolated by positive magnetic cell-sorting (Miltenyi Biotec, Bergisch Gladbach, Germany). Monocytes (1×10^6 cells/mL) were cultured in complete medium (CM) consisting of RPMI 1640 (Lonza, Verviers, Belgium) supplemented with 10% fetal calf serum (FCS) (Eurobio), 2 mM L-glutamine, 1 mM sodium pyruvate, 0.1 mM non-essential amino acids, 10 mM HEPES, 100 U/mL penicillin and 100 μg/mL streptomycin (all from Lonza) in the presence of 50 ng/mL GM-CSF (R&D Systems, Minneapolis, MN). […]
Cells were first incubated with 150 nM MitoTracker Green (Thermo Fisher Scientific) in CM medium at 37° C. for 10 min. […] Image blobs were then analyzed with the regionprops function of Matlab.
We fixed 5×10^6 macrophages by incubation for 16 h at 4° C. with 2.5% electron-grade glutaraldehyde (LFD Distribution, Sainte Consorce, France) in 0.1 M phosphate buffer pH 7.4. […] Stitched images were reviewed and scored by a trained electron histopathologist for the presence of autophagy and mitophagy vacuoles. Mitochondrial size was determined by measuring the maximum Feret diameter on TEM images.

[2] = system: human monocytes differentiated into macrophages under lactic acidosis (LA-Mφ); experiment: Oxygen consumption rate (XF96 extracellular flux analyzer); details: LA-Mφ+AcAc compared to LA-Mφ
Experimental: as §1
We used an XF96 extracellular flux analyzer (Agilent Technologies, Santa Clara, CA) to determine the bioenergetic profile of cells. […] Oxygen consumption rate (OCR) was recorded, to assess mitochondrial respiratory activity and glycolytic activity. OCR was recorded in basal conditions, and the cells were then treated sequentially with 2 μg/mL oligomycin, and 3 μM carbonyl cyanide p-(trifluoromethoxy) phenylhydrazone (FCCP) (both from Sigma-Aldrich). […]

[3] = system: human monocytes differentiated into macrophages under lactic acidosis (LA-Mφ); experiment: Mitochondrial mass (mtDNA copy number) and NRF2 mRNA expression; details: data not shown
From the text: (§2) Peripheral blood mononuclear cells (PBMC) were obtained from healthy human volunteers (Blood collection center, Angers, France; agreement ANG-2017-01) by standard density-gradient centrifugation on lymphocyte separation medium (Eurobio, Courtaboeuf, France). CD14+ monocytes were then isolated by positive magnetic cell-sorting (Miltenyi Biotec, Bergisch Gladbach, Germany). […]
Cells were lysed in Trizol reagent (Life Technologies, Thermo Fisher Scientific), and total RNA was extracted with the RNeasy Micro kit (Qiagen, Hilden, Germany) and then reverse-transcribed with the Superscript II reverse transcriptase (Life Technologies). Levels of mRNA encoding the indicated proteins were then analyzed by subjecting the cDNA obtained by reverse transcription to qPCR. Relative quantification was performed by the 2^−ΔΔCT method, with RPS18, EF1A, TBP, RPL13A and PPIA as references. Results are expressed as relative mRNA levels.
Mitochondrial DNA (mtDNA) content was determined by qPCR with primers specific for the ND4 and COX1 genes, and was weighted according to nuclear DNA levels, which were quantified by analyzing […], as previously described (23).

[4] = system: human monocytes differentiated into macrophages under lactic acidosis (LA-Mφ); experiment: Intracellular ATP levels in macrophages under lactic acidosis; details: 5 mM AcAc, 10 mM lactic acid, FIG. 1A
Experimental: as §2
The intracellular levels of ATP in whole-cell lysates were determined with enzymatic assays (Abcam, Cambridge, UK), according to the manufacturer's instructions. ATP was quantified in (i) macrophages generated in the absence (Mφ) or presence of lactic acid (LA-Mφ) or of lactic acid and acetoacetate (LA-Mφ+AcAc), (ii) macrophages with or without depolarized mitochondria (“Depol” and “Pol” populations, respectively) isolated from day 3 LA-Mφ by flow cytometry using MitoTracker Green and MitoTracker Deep Red probes (purity>99%) and, (iii) PBMC isolated from septic shock patients (n=3) were cultured for 24 h in a medium containing 0.5 g/L glucose, supplemented with 5 mM of acetoacetate (AcAc) or with 2 g/L of glucose (Glc). […]

CC(=O)CC(=O)[O-].[Li+] [AcAc, lithium acetoacetate]
mitochondrial network architecture (morphology and size) [1]: protected the mitochondrial network architecture | OCR consumption [2]: induced | mitochondrial mass ([3]; LA-Mφ+AcAc (5 mM AcAc, 10 mM lactic acid)): no reduction of the mitochondrial mass | expression of NRF2 ([3]; LA-Mφ+AcAc relative to LA-Mφ): tend to increase | intracellular levels of ATP [4]: restored the intracellular levels of ATP
